These results are taken from patent publication US20130331427A1, “METHODS OF STIMULATING CELLULAR GROWTH, SYNAPTIC, REMODELING AND CONSOLIDATION OF LONG-TERM MEMORY” (Blanchette Rockefeller Neuroscience Institute, priority 2007, published 2013).

One series concerns CA1 neurons. Briefly: acute hippocampal slices, number of dendritic spines (spinophilin). The series is classed as cell-based. As to conditions: 0.1 nM, spine marker spinophilin.
In a further series the test system is ELAV. Briefly: acute hippocampal slices, nuclear export of ELAV. The series is classed as cell-based. As to conditions: 120-min incubation.
The test system of the next series is Rat IGF-IR cells. Put plainly: overall protein synthesis, [35S]methionine incorporation. To be noted: single 30-minute exposure to 0.28 nM.
For the next series, the system named is PKC. As to conditions: cited from earlier work.
A further series deals with rats. Put plainly: rat spatial (water) maze learning and memory. In kind it is in vivo.
For another series, the target named is T1, PKCδ (Rattus norvegicus, UniProt P09215).
T1 construct: from tissue; host or cells: hippocampal slices
Put plainly: acute hippocampal slices, PKCδ activation. In kind it is cell-based.

The subject of a further series is calexcitin. Put plainly: calexcitin immunostaining in Hermissenda B-photoreceptors. In kind it is in vivo. How it is done:
Following experimental treatments and testing, animals were rapidly decapitated, the central nervous systems (CNS) removed and then fixed in 4% para-formaldehyde in 20 mM Tris-buffered (pH 8) natural seawater (NSW; 0.2 μm micropore-filtered). The CNSs were then embedded in polyester wax (20), sectioned (6 μm) and immunostained using a biotinylated secondary antibody coupled to avidin-bound microperoxidase (ABC method, Vector), Aminoethylcarbazole (AEC) was used as the chromogen. The primary polyclonal antibody (designated 25U2) was raised in rabbits from the full length calexcitin protein extracted from squid optic lobes. Gray-scale intensity measures were done from digital photomicrographs on circumscribed cytoplasmic areas of the B-photoreceptors minus the same background area (non-staining neuropile).
Micrographs (A, B) depict representative tissue sections from Hermissenda eyes that were immunolabeled with the calexcitin polyclonal antibody, 25U2. […] Differences in staining intensities were measured and recorded as gray-scale intensities (0-256; B-cell cytoplasm minus tissue background).

A further series has as its system presynaptic markers. Put plainly: pre- and postsynaptic markers, quantitative confocal immunohistochemistry. The series is classed as in vivo, rat. To be noted: bryostatin alone. The text has this:
Water maze training increased the numbers of the dendritic spine marker spinophilin (FIG. 29; Panel B), postsynaptic membrane marker neurogranin (FIG. 29; Panels A and D), and presynaptic marker GAP-43 (Panels A and E), but not the axon bouton marker synaptophysin (FIG. 29; Panels A and B), as determined by quantitative confocal immunohistochemistry.

The conditions of series [1]: cited from earlier work.

T1 sequence (P09215 whole entry): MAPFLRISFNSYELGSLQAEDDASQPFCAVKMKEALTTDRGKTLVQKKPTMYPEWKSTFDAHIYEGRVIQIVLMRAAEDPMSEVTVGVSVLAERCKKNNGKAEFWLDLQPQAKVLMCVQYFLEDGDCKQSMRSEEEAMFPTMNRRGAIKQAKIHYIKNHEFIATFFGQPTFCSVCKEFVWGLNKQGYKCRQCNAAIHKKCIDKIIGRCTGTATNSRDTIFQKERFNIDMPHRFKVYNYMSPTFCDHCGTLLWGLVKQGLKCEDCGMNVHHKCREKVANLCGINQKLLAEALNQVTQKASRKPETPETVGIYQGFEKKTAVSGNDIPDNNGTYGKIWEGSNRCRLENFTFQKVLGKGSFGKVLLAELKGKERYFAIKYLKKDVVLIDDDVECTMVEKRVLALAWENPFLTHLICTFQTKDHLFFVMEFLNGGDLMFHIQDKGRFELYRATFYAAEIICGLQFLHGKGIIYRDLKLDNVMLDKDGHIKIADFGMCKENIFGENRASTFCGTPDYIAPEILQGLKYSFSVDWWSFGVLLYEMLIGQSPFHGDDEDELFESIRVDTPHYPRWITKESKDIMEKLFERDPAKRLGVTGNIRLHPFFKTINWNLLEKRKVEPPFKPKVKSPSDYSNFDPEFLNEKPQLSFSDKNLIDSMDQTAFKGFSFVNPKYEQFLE
Procedure for Rat IGF-IR cells: [^35S]Methionine (9.1 μCi) was then added to the medium followed by analysis of radiolabel.

Consider `CCC/C=C/C=C/C(=O)O[C@H]1/C(=C/C(=O)OC)C[C@H]2C[C@H]([C@@H](C)O)OC(=O)C[C@H](O)C[C@@H]3C[C@H](OC(C)=O)C(C)(C)[C@](O)(C[C@@H]4C/C(=C/C(=O)OC)C[C@H](/C=C/C(C)(C)[C@]1(O)O2)O4)O3` [bryostatin, bryostatin-1], for which the “number of dendritic spines” value is given as “augmented” in the series on CA1 neurons and “increased” in the series with CA1 neurons (listed as Bryostatin). In addition, the ELAV transport entry in the series with ELAV is “significantly transported to dendrites”. Moreover, the “increase of overall protein synthesis” value in the series with Rat IGF-IR cells (by 79 hours) is listed as 60%; in the series with Rat IGF-IR cells (within 24 h), 20%. For the same compound, in the series on PKC, the “concentrations that activate PKC” value is recorded as “sub-nanomolar”. For the same compound, the “latency to reach the platform” value with rats (10 μg/kg i.p. 20 min before training on day 1, 3, 5, vs. controls) was “greatly reduced”. The “number of target crossings” value in the series on rats (retention Day 1) is given as “similarly enhanced”. In the series on rats (retention day 1, 24 hours after all training), the “time to reach the target quadrant” value is given as “reduced”. The “activation of PKCδ” value on PKCδ was “but not PKCδ”. Besides, the CE immunostaining entry was “not elevated” in the series on calexcitin (bryostatin alone, 24 hours after 1 exposure for four hours); “greater residual CE immunostaining” with calexcitin (bryostatin alone, 24 hours after 2 exposures on two successive days); “comparable to that observed after 9 TE” with calexcitin (bryostatin plus 6 TE). For the same compound, the “increase of calexcitin levels” value in the series on calexcitin (paired training (6PTE), bryostatin 0.25) is “greater than 4.3 ×”. In the series on calexcitin (random training (4RTE), bryostatin 0.25), the “rise in CE (calexcitin)” value turned out to be 2.0. The calexcitin level result in the series on calexcitin (two exposures on successive days 0.25 ng/ml, 2-paired TEs, vs 9-random TEs) is recorded as “significantly increased”. In addition, the “number of presynaptic markers” value with presynaptic markers is recorded as “increased”. The tolerability result in [1] (20 μg/m^2 once per week for 3 weeks) was “well tolerated”. In series [1] (1 hour i.v. infusion once every 2 weeks for 6 weeks), the maximum-tolerated dose is 50 μg/m^2. The maximum tolerated dose in series [1] (once per week for 8 weeks) is 25 μg/m^2. In addition, the “myalgia reported, share of all treated patients” value in series [1] (phase II clinical trials) is on record as 10 to 87%.
